Source: patent publication US12448373B2, “Azetidinyl-acetamides as CXCR7 inhibitors” (CHEMOCENTRYX, INC., priority 2021, dated 2025)

target: T1, CXCR7 (Homo sapiens, UniProt P25106); experiment: CXCR7 β-arrestin recruitment assay in CHO-CXCR7 cells (ProLink/EA β-galactosidase complementation), induced by human SDF-1a; type: cell-based; settings: assay buffer, SDF-1a at EC50 concentration
T1 construct: expressed in transfected cells; host or cells: CHO cells (CHO-CXCR7), transgenes maintained with Hygromycin B and G418
Protocol: CXCR7 is fused in frame with a small enzyme donor fragment ProLink and co-expressed in CHO cells stably expressing a fusion protein of β-arrestin and the larger, N-terminal deletion mutant of β-galactosidase (called enzyme acceptor or EA). Activation of the CXCR7 stimulates binding of β-arrestin to the ProLink-tagged CXCR7 and forces complementation of the two enzyme fragments, resulting in the formation of an active β-galactosidase enzyme. The β-galactosidase enzyme activity is measured with a substrate that generates fluorescence.
CHO-CXCR7 cells (0.22×10^6/mL) were cultured in growth medium (Ham's F-12 medium with 10% fetal bovine serum (FBS)), Hygromycin B (200 ug/mL) and G418 (250 ug/mL) were used to maintain the transgenes. The day before the assay, the cells were detached from culture dishes with 0.25% trypsin-EDTA (Corning, Catalog No. 25-053-CI), plated into 96 well plate (2.2×10^5 cells/mL, 100 μL/well) and incubated overnight at 37° C. with 5% CO2. On the day of the assay, cell culture medium was removed and 100 uL of assay buffer (PBS or FBS) was added to each well. 1 μL of compound that were serially diluted in DMSO was added to each well. 5 μL of human SDF-la (Pepro Tech, Catalog No. 300-28A, at EC50 concentration pre-determined on the same day) was then added and mixed to induce CXCR7-mediated β-arrestin recruitment. The plates were incubated for 1.5 hours at 37° C. The assay buffer was removed, 100 μL substrate solution was added and the reaction was carried out at 37° C. for 30 minutes. The substrate solution was prepared by mixing 100 mL Phosphate Buffer (1M, Sigma, Catalog No. P3619-1GA), 100 mL 10% Triton X 100 (Sigma, Catalog No. T8787.), 5 mL MgCl2 (1M, Sigma, Catalog No. M1028), 1.5 mL, β-mercaptoethanol (Gibco, Catalog No. 21985-023.). 3-carboxyumbelliferyl β-D-galactopyranoside (ThermoFisher Scientific, Catalo No. F2905) was added at 0.4 mM right before use. The reaction was then stopped by adding 50 μL of Stop Solution (2.1% w/v Na2CO3) to each well. Fluorescence intensity was measured with a FlexStation 3 microplate reader (Molecular Devices) with the following setting—excitation: 360 nm, emission: 465 nm, manual Gain: 55. IC50 values were calculated with GraphPad Prism using 3 parameter nonlinear regression.

T1 sequence (P25106 whole entry): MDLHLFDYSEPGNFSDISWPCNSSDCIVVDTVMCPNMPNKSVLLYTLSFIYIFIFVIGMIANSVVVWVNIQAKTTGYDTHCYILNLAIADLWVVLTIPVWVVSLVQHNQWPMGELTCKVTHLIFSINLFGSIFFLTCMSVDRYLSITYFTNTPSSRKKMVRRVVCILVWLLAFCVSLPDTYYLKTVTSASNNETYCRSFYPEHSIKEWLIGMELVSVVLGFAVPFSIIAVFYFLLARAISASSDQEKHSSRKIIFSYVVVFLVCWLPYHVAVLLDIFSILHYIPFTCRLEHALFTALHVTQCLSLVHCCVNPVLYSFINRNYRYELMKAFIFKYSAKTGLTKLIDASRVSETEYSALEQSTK

IC50, 1 to 20 µM:
Cc1c(C(=O)NC2(CC(=O)NC(C)(C)c3cccc(Cl)c3)CN(C3CCCCC3)C2)noc1-c1ccc(F)cc1F [Example 1.340]
Cc1cc(C)nc(C(C)(C)NC(=O)CC2(NC(=O)c3cc(-c4ccc(F)cc4F)n[nH]3)CN([C@H]3CC[C@@](C)(O)CC3)C2)n1 [Example 1.052]
O=C(CC1(NC(=O)c2cc(-c3ccc(F)cc3F)on2)CN(C2CCCCC2)C1)N[C@@H](CO)c1ccccc1 [Example 1.310]

IC50, < 0.005 µM:
Cc1ccnc(C(C)(C)NC(=O)CC2(NC(=O)c3cc(-c4ccc(F)cc4F)on3)CN([C@H]3CC[C@](C)(O)CC3)C2)c1 [Example 1.164]
COc1cc(C(C)(C)NC(=O)CC2(NC(=O)c3cc(-c4ccc(F)cc4F)on3)CN([C@H]3CC[C@](C)(O)CC3)C2)ccn1 [Example 1.189]
Cc1ccc(F)c(C(C)(C)NC(=O)CC2(NC(=O)c3cc(-c4ccc(F)cc4F)on3)CN([C@H]3CC[C@](C)(O)CC3)C2)n1 [Example 1.008]
COc1cc(C)nc(C(C)(C)NC(=O)CC2(NC(=O)c3cc(-c4ccc(F)cc4F)on3)CN([C@H]3CC[C@@](C)(O)CC3)C2)n1 [Example 1.167]
CC1(O)CCC(N2CC(CC(=O)NC3(c4ncccn4)CC3)(NC(=O)c3cc(-c4ccc(F)cc4F)on3)C2)CC1 (centres unmarked) [Example 1.277]
COc1cccc(C(C)(C)NC(=O)CC2(NC(=O)c3cc(-c4ccc(F)cc4F)on3)CN([C@H]3CC[C@@](C)(O)CC3)C2)n1 [Example 1.203]
CC(C)(NC(=O)CC1(NC(=O)c2cc(-c3ccc(F)cc3F)on2)CN([C@H]2CC[C@](C)(O)CC2)C1)c1ccccc1C(F)(F)F [Example 1.291]
CC(C)(NC(=O)CC1(NC(=O)c2cc(-c3ccc(F)cc3F)no2)CN([C@H]2CC[C@](C)(O)CC2)C1)c1cccc(Cl)c1 [Example 1.048]
COc1cccc(C(C)(C)NC(=O)CC2(NC(=O)c3cc(-c4ccc(F)cc4F)on3)CN([C@H]3CC[C@](C)(O)CC3)C2)n1 [Example 1.204]
CC(C)(NC(=O)CC1(NC(=O)c2cc(-c3ccc(F)cc3F)on2)CN([C@H]2CC[C@@](C)(O)CC2)C1)c1cccc(Cl)c1 [Example 1.220]
Cc1cc(Cl)cc(C(C)(C)NC(=O)CC2(NC(=O)c3cc(-c4ccc(F)cc4F)on3)CN([C@H]3CC[C@](C)(O)CC3)C2)n1 [Example 1.003]
CC(C)(NC(=O)CC1(NC(=O)c2cc(-c3ccc(F)cc3F)on2)CN([C@H]2CC[C@@](C)(O)CC2)C1)c1ccccc1C(F)(F)F [Example 1.292]
CC(C)(NC(=O)CC1(NC(=O)c2cc(-c3ccc(F)cc3F)on2)CN([C@H]2CC[C@](C)(O)CC2)C1)c1ccncc1 [Example 1.182]
CCc1cccc(C(C)(C)NC(=O)CC2(NC(=O)c3cc(-c4ccc(F)cc4F)on3)CN([C@H]3CC[C@@](C)(O)CC3)C2)c1 [Example 1.208]
CC(C)(NC(=O)CC1(NC(=O)c2cc(-c3ccc(F)cc3F)on2)CN([C@H]2CC[C@@](C)(O)CC2)C1)c1cccc(F)c1 [Example 1.290]

IC50, 0.1 to 1 µM:
Cc1ccc(C(C)(C)NC(=O)CC2(NC(=O)c3cc(-c4ccc(F)cc4F)on3)CN([C@H]3CC[C@](C)(O)CC3)C2)cc1C(F)(F)F [Example 1.262]
CN1CCC(N2CC(CC(=O)NC(C)(C)c3ccccn3)(NC(=O)c3cc(-c4ccc(F)cc4F)on3)C2)CC1 [Example 1.280]
CC(C)(CO)NC(=O)CC1(NC(=O)c2cc(-c3ccc(F)cc3F)on2)CN(C2CCCCC2)C1 [Example 1.309]
Cc1cc(C)nc(C(C)(C)NC(=O)CC2(NC(=O)c3cc(-c4ccc(F)cc4F)on3)CN(C3CCOC3(C)C)C2)n1 (centres unmarked) [Example 1.353]
CC(C)(NC(=O)CC1(NC(=O)c2cc(-c3ccc(F)cc3F)on2)CN(CC2CCOC2)C1)c1ccccn1 (centres unmarked) [Example 1.223]
CC(CN1CC(CC(=O)NC(C)(C)c2ccccn2)(NC(=O)c2cc(-c3ccc(F)cc3F)on2)C1)C(F)(F)F (centres unmarked) [Example 1.018]
CC(C)(NC(=O)CC1(NC(=O)c2cc(-c3ccc(F)cc3F)on2)CN([C@H]2CC[C@](C)(C(=O)O)CC2)C1)c1ccccn1 [Example 1.108]

IC50, 0.005 to 0.1 µM:
Cc1cc(C)nc(C(C)(C)NC(=O)CC2(NC(=O)c3cc(-c4ccc(F)cc4F)on3)CN(CC(C)C)C2)n1 [Example 1.037]
Cc1cc(Cl)cc(C(C)(C)NC(=O)CC2(NC(=O)c3nnc(-c4ccc(F)cc4F)s3)CN([C@H]3CC[C@](C)(O)CC3)C2)c1 [Example 1.348]
CC(C)(NC(=O)CC1(NC(=O)c2cc(-c3ccc(F)cc3F)on2)CN([C@H]2CC[C@](C)(O)CC2)C1)c1cnccn1 [Example 1.158]
COc1cccc(C(C)(C)NC(=O)CC2(NC(=O)c3cc(-c4ccc(F)cc4F)on3)CN([C@H]3CC[C@@](C)(O)CC3)C2)c1F [Example 1.195]
CC(C)(O)CN1CC(CC(=O)NC(C)(C)c2cc(F)cc(F)c2)(NC(=O)c2cc(-c3ccc(F)cc3F)on2)C1 [Example 1.137]
Cc1cc(C)nc(C(C)(C)NC(=O)CC2(NC(=O)c3nnc(-c4ccc(F)cc4F)s3)CN(CC3CC3)C2)n1 [Example 1.030]
CC(C)(NC(=O)CC1(NC(=O)c2cc(-c3ccc(F)cc3F)on2)CN(C2CCCCC2)C1)c1ccc(Cl)nc1 [Example 1.284]
CC1(CN2CC(CC(=O)NC(C)(C)c3ccccn3)(NC(=O)c3cc(-c4ccc(F)cc4F)on3)C2)COC1 [Example 1.224]
C[C@]1(O)CC[C@H](N2CC(CC(=O)NC3(c4ccccn4)CC3)(NC(=O)c3cc(-c4ccc(F)cc4F)on3)C2)CC1 [Example 1.191]
CC(C)(NC(=O)CC1(NC(=O)c2cc(-c3ccc(F)cc3F)on2)CN([C@H]2CC[C@@](C)(O)CC2)C1)c1ccnc(C#N)c1 [Example 1.161]
CC(C)(NC(=O)CC1(NC(=O)c2nnc(-c3ccc(F)cc3F)s2)CN([C@H]2CC[C@](C)(O)CC2)C1)c1cc(Cl)ccc1F [Example 1.336]
CC(C)(NC(=O)CC1(NC(=O)c2cc(-c3ccc(F)cc3F)on2)CN(C2CCC(F)(F)CC2)C1)c1ccccn1 [Example 1.319]
CC(C)(NC(=O)CC1(NC(=O)c2cc(-c3ccc(F)cc3F)on2)CN(C2CCC3(CC2)CC3)C1)c1ccccn1 [Example 1.269]
O=C(CC1(NC(=O)c2cc(-c3ccc(F)cc3F)on2)CN(C2CCCCC2)C1)NC1(c2ccccc2)CC1 [Example 1.325]
CC(C)(NC(=O)CC1(NC(=O)c2cc(-c3ccc(F)cc3F)on2)CN([C@H]2CCC[C@@H](O)C2)C1)c1ccccn1 [Example 1.286]
CC(C)(NC(=O)CC1(NC(=O)c2cc(-c3ccc(F)cc3F)on2)CN(C2CCCC2)C1)c1ccccn1 [Example 1.094]
C[C@]1(O)CC[C@H](N2CC(CC(=O)NC3(c4cccc(Cl)c4)COC3)(NC(=O)c3cc(-c4ccc(F)cc4F)on3)C2)CC1 [Example 1.103]
CC(C)(NC(=O)CC1(NC(=O)c2nnc(-c3ccc(F)cc3F)s2)CN([C@H]2CC[C@@](C)(O)CC2)C1)c1ccccn1 [Example 1.062]
COc1cccc(C(C)(C)NC(=O)CC2(NC(=O)c3cc(-c4ccc(F)cc4F)on3)CN([C@H]3CC[C@](C)(O)CC3)C2)c1 [Example 1.239]
CCc1cc(C(C)(C)NC(=O)CC2(NC(=O)c3cc(-c4ccc(F)cc4F)on3)CN([C@H]3CC[C@](C)(O)CC3)C2)ccn1 [Example 1.149]
Cc1cc(C)nc(C(C)(C)NC(=O)CC2(NC(=O)c3nnc(-c4ccc(F)cc4F)s3)CN([C@H]3CC[C@@](C)(O)CC3)C2)n1 [Example 1.060]
CC(C)(NC(=O)CC1(NC(=O)c2cc(-c3ccc(F)cc3F)on2)CN(C2CCC3(CC2)COC3)C1)c1cccc(F)c1 [Example 1.234]
Cc1cc(C(C)(C)NC(=O)CC2(NC(=O)c3cc(-c4ccc(F)cc4F)on3)CN(CC3(C)COC3)C2)ccn1 [Example 1.151]
CC1(C)CC(N2CC(CC(=O)NC(C)(C)c3ccccn3)(NC(=O)c3cc(-c4ccc(F)cc4F)on3)C2)CCO1 (centres unmarked) [Example 1.013]
COc1cncc(C(C)(C)NC(=O)CC2(NC(=O)c3cc(-c4ccc(F)cc4F)on3)CN([C@H]3CC[C@](C)(O)CC3)C2)c1 [Example 1.142]
